Here are results for 25 molecules from patent US10040781B2, “Tank-binding kinase inhibitor compounds” (Gilead Sciences, Inc., priority 2014, dated 2018).

In one assay the target is IKKε (Homo sapiens (Human), UniProt Q14164). The assay can be described thus: IKKε TR-FRET enzymatic assay. The class given is biochemical. Conditions: read-out: IKKe IC50.
The next assay addresses hJAK2 (Homo sapiens (Human), UniProt O60674). The assay can be described thus: hJAK2 LANCE TR-FRET enzymatic assay. Type of assay: biochemical. Conditions: read-out: JAK2 IC50.
The next assay concerns the target TBK1 (Homo sapiens (Human), UniProt Q9UHD2). The assay can be described thus: TBK1 TR-FRET enzymatic assay.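 Note: phosphorylation of a biotinylated Ser/Thr peptide by purified full-length recombinant TBK1, read by TR-FRET after 240 min at 25 °C, IC50 is the geometric mean of at least four runs.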
Where [1] appears, read: TR-FRET, 2×Km ATP, geometric mean of minimum four determinations.

Structures are written as SMILES. Like-named read-outs stand apart in the source and are kept apart here.

Chain of hJAK2 (O60674 whole entry): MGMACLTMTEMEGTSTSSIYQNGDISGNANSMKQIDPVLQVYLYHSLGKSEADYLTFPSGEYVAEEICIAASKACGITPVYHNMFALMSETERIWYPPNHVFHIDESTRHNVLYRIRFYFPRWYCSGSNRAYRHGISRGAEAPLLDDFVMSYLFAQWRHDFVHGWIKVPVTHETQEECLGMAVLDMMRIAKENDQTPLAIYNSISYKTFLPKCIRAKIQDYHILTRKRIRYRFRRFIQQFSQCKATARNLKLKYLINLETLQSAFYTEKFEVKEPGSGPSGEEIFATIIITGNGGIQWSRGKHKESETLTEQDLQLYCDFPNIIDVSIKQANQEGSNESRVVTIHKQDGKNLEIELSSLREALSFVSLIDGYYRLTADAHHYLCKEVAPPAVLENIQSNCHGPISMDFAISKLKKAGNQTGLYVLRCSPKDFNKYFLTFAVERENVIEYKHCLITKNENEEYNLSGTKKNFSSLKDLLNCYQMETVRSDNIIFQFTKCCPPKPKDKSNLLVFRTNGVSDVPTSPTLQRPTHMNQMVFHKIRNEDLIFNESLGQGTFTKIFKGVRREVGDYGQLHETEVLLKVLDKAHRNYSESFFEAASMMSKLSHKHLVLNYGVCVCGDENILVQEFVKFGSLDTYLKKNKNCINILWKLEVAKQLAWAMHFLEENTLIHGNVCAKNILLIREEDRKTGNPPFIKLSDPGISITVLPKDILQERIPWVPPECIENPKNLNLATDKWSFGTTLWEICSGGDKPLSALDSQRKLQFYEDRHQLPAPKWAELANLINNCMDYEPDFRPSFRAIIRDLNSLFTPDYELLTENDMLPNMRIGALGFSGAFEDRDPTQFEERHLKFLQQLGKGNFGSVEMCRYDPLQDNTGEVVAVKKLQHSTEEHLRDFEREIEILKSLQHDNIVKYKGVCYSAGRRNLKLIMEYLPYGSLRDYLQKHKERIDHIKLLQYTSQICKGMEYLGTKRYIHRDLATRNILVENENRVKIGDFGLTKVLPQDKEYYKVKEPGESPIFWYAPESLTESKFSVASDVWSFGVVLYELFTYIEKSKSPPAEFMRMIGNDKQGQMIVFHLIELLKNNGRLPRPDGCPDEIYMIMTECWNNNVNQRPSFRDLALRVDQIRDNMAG
Chain of TBK1 (Q9UHD2 whole entry): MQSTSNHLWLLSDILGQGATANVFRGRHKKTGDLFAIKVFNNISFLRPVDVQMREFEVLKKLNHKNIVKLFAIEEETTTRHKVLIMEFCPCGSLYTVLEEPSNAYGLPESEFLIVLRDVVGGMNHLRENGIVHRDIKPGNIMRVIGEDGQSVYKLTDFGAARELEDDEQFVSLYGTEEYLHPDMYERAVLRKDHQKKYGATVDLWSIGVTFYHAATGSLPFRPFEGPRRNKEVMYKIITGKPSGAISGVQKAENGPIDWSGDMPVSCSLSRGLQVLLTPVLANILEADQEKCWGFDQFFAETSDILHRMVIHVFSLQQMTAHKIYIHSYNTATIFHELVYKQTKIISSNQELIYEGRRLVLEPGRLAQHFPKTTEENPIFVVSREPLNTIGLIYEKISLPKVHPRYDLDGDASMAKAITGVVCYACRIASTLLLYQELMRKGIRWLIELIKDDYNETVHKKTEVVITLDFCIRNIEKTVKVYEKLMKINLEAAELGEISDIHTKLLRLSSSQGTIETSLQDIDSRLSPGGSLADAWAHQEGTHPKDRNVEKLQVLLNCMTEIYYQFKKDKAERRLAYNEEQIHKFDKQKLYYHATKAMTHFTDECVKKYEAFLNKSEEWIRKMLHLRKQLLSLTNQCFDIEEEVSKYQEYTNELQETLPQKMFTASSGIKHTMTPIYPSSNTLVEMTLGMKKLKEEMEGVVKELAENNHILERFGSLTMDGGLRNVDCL
Chain of IKKε (Q14164 whole entry): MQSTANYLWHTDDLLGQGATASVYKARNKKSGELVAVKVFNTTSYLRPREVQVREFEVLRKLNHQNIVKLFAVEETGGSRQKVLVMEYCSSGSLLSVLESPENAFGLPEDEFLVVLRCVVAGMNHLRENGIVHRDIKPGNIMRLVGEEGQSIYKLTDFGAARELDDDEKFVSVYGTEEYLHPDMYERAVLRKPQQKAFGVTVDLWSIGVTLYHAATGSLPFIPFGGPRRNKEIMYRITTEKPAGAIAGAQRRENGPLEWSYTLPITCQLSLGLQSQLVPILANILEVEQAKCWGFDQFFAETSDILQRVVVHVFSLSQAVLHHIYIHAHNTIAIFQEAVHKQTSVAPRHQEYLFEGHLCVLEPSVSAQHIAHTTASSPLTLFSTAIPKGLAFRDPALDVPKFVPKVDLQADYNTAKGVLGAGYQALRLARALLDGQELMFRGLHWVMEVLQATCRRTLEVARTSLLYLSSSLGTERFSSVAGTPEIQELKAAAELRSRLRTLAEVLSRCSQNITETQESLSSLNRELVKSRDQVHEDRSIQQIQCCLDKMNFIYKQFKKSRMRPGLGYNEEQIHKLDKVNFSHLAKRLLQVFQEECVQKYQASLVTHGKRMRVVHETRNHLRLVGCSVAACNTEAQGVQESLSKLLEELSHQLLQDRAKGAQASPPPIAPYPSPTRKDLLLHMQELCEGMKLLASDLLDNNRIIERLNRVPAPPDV

As for `N#Cc1cc(-c2ncnc(Nc3ccc(N4CCN(C5COC5)CC4)cc3)n2)ccc1OC1CCNCC1(F)F` (racemic) [Example 148, 2-((3,3-difluoropiperidin-4-yl)oxy)-5-(4-((4-(4-(oxetan-3-yl)piperazin-1-yl)phenyl)amino)-1,3,5-triazin-2-yl)benzonitrile], the IC50 stood at 23 nM on IKKε, 242 nM on hJAK2 and 3 nM on TBK1.
Turning to `N#Cc1cc(-c2ncnc(Nc3cnn(C4CCNCC4)c3)n2)ccc1O[C@H]1CCCC[C@H]1F` (racemic) [Example 295, rac-2-(((1S,2R)-2-fluorocyclohexyl)oxy)-5-(4-((1-(piperidin-4-yl)-1H-pyrazol-4-yl)amino)-1,3,5-triazin-2-yl)benzonitrile], the IC50 on IKKε was 6 nM; at hJAK2 it was 154 nM; on TBK1, 24 nM.
On to `C[C@H]1CN(C(=O)CO)CC(F)(F)[C@H]1Oc1ccc(-c2ncnc(Nc3ccc(N4CCN(C5COC5)CC4)cc3)n2)cc1C#N` (relative stereo) [Example 430, Cis 2-((3,3-difluoro-1-(2-hydroxyacetyl)-5-methylpiperidin-4-yl)oxy)-5-(4-((4-(4-(oxetan-3-yl)piperazin-1-yl)phenyl)amino)-1,3,5-triazin-2-yl)benzonitrile], for which the IC50 came out at 2 nM on IKKε (setting [1]), 65 nM at hJAK2 and 4 nM on TBK1.
Taken in the same sequence, the figures for `C[C@@H]1CN(C(=O)CO)CC(F)(F)[C@H]1Oc1ccc(-c2ncnc(Nc3ccc(N4CCN(C5COC5)CC4)cc3)n2)cc1C#N` (relative stereo) [Example 432, trans-2-((3,3-difluoro-1-(2-hydroxyacetyl)-5-methylpiperidin-4-yl)oxy)-5-(4-((4-(4-(oxetan-3-yl)piperazin-1-yl)phenyl)amino)-1,3,5-triazin-2-yl)benzonitrile] were 3 nM, 140 nM and 5 nM.
Taken in the same sequence, the figures for `N#Cc1cc(-c2ncnc(Nc3ccc(N4CCN(C5COC5)CC4)cc3)n2)ccc1O[C@H]1CCN(C(=O)CO)C[C@@H]1C(F)(F)F` (relative stereo) [Example 438, Trans-2-((1-(2-hydroxyacetyl)-3-(trifluoromethyl)piperidin-4-yl)oxy)-5-(4-((4-(4-(oxetan-3-yl)piperazin-1-yl)phenyl)amino)-1,3,5-triazin-2-yl)benzonitrile] were 8 nM, 15 nM and 6 nM.
Taken in the same sequence, the figures for `N#Cc1cc(-c2ncnc(Nc3ccc(N4CCN(C5COC5)CC4)cc3)n2)ccc1O[C@H]1CCN(C(=O)CO)C[C@H]1C(F)(F)F` (relative stereo) [Example 439, cis-2-((1-(2-hydroxyacetyl)-3-(trifluoromethyl)piperidin-4-yl)oxy)-5-(4-((4-(4-(oxetan-3-yl)piperazin-1-yl)phenyl)amino)-1,3,5-triazin-2-yl)benzonitrile] were 12 nM, 21 nM and 9 nM.
Take `N#Cc1cc(-c2ncnc(Nc3ccc(N4CCN(C5COC5)CC4)cc3)n2)ccc1O[C@H]1CCNCC1(F)F` (single isomer, unassigned) [Example 149]: the IC50 worked out at 229 nM at IKKε, 330 nM on hJAK2 and 49 nM on TBK1.
`N#Cc1cc(-c2ncnc(Nc3ccc(N4CCN(C5COC5)CC4)cc3)n2)ccc1O[C@@H]1CCNCC1(F)F` (single isomer, unassigned) [Example 150]: the 50% inhibitory concentration (IC50) was 14 nM on IKKε, 270 nM at hJAK2 and 2 nM against TBK1.
Consider `C[C@H](O)C(=O)N1CC[C@H](Oc2ccc(-c3ncnc(Nc4ccc(N5CCN(C6COC6)CC5)cc4)n3)cc2C#N)C(F)(F)C1` (single isomer, unassigned) [Example 155], for which the figures for the IC50 on IKKε and on hJAK2 were 1 nM and 198 nM, respectively.
Consider `C[C@H](O)C(=O)N1CC[C@@H](Oc2ccc(-c3ncnc(Nc4ccc(N5CCN(C6COC6)CC5)cc4)n3)cc2C#N)C(F)(F)C1` (single isomer, unassigned) [Example 156], for which the IC50 is 23 nM on IKKε, 196 nM on hJAK2 and 16 nM against TBK1.
Taken in the same sequence, the figures for `C[C@@H](O)C(=O)N1CC[C@H](Oc2ccc(-c3ncnc(Nc4ccc(N5CCN(C6COC6)CC5)cc4)n3)cc2C#N)C(F)(F)C1` (single isomer, unassigned) [Example 158] were 3 nM, 171 nM and 1 nM.
As to `C[C@@H](O)C(=O)N1CC[C@@H](Oc2ccc(-c3ncnc(Nc4ccc(N5CCN(C6COC6)CC5)cc4)n3)cc2C#N)C(F)(F)C1` (single isomer, unassigned) [Example 159], the IC50 at IKKε came out at 209 nM; at hJAK2, 207 nM; against TBK1 it was 79 nM.
Taken in the same sequence, the figures for `CC1(C)CN(C(=O)CO)C[C@H](F)[C@@H]1Oc1ccc(-c2ncnc(Nc3ccc(N4CCN(C5COC5)CC4)cc3)n2)cc1C#N` (single isomer, unassigned) [Example 178] were 1 nM, 49 nM and 2 nM.
The like results for `CC1(C)CN(C(=O)CO)C[C@@H](F)[C@H]1Oc1ccc(-c2ncnc(Nc3ccc(N4CCN(C5COC5)CC4)cc3)n2)cc1C#N` (single isomer, unassigned) [Example 179] were, in that order, 13 nM, 234 nM and 8 nM.
The like results for `N#Cc1cc(-c2ncnc(Nc3ccc(N4CCN(C5COC5)CC4)cc3)n2)ccc1O[C@H]1CN(C(=O)CO)CC1(F)F` (single isomer, unassigned) [Example 195] were, in that order, 10 nM, 90 nM and 2 nM.
For the molecule `N#Cc1cc(-c2ncnc(Nc3ccc(N4CCN(C5COC5)CC4)cc3)n2)ccc1O[C@@H]1CN(C(=O)CO)CC1(F)F` (single isomer, unassigned) [Example 196], the IC50 on IKKε came to 391 nM; on hJAK2, 118 nM; at TBK1 it was 114 nM.
With `CC(N)C(=O)N1CC[C@H](Oc2ccc(-c3ncnc(Nc4ccc(N5CCN(C6COC6)CC5)cc4)n3)cc2C#N)[C@H](F)C1` (stereo in doubt) [Example 434, 2-(((3R,4S)-1-((R)-2-aminopropanoyl)-3-fluoropiperidin-4-yl)oxy)-5-(4-((4-(4-(oxetan-3-yl)piperazin-1-yl)phenyl)amino)-1,3,5-triazin-2-yl)benzonitrile], the IC50 at IKKε (setting [1]) amounted to 42 nM; on hJAK2, 865 nM; at TBK1, 20 nM.
On to `N#Cc1cc(-c2ncnc(Nc3ccc(N4CCS(=O)(=O)CC4)cc3)n2)ccc1OC1CCOCC1` [Example 1, 5-(4-((4-(1,1-dioxidothiomorpholino)phenyl)amino)-1,3,5-triazin-2-yl)-2-((tetrahydro-2H-pyran-4-yl)oxy)benzonitrile], for which the IC50 on IKKε is 6 nM; on hJAK2, 360 nM; at TBK1, 2 nM.
Taken in the same sequence, the figures for `CC(=O)N1CC[C@@H](Oc2ccc(-c3ncnc(Nc4ccc(N5CCN(C6COC6)CC5)cc4)n3)cc2C#N)C1` [Example 3, (R)-2-((1-acetylpyrrolidin-3-yl)oxy)-5-(4-((4-(4-(oxetan-3-yl)piperazin-1-yl)phenyl)amino)-1,3,5-triazin-2-yl)benzonitrile] were 99 nM, 724 nM and 20 nM.
Taken in the same sequence, the figures for `N#Cc1cc(-c2ncnc(Nc3ccc(N4CCN(C5COC5)CC4)cc3)n2)ccc1OC1COC1` [Example 5, 5-(4-((4-(4-(oxetan-3-yl)piperazin-1-yl)phenyl)amino)-1,3,5-triazin-2-yl)-2-(oxetan-3-yloxy)benzonitrile] were 101 nM, 269 nM and 35 nM.
The like results for `CC1(COc2ccc(-c3ncnc(Nc4ccc(N5CCN(C6COC6)CC5)cc4)n3)cc2C#N)COC1` [Example 6, 2-((3-methyloxetan-3-yl)methoxy)-5-(4-((4-(4-(oxetan-3-yl)piperazin-1-yl)phenyl)amino)-1,3,5-triazin-2-yl)benzonitrile] were, in that order, 20 nM, 178 nM and 7 nM.
Take `N#Cc1cc(-c2ncnc(Nc3ccc(N4CCN(C5COC5)CC4)cc3)n2)ccc1O[C@H]1CCN(C(=O)[C@@H]2CCCN2)C[C@H]1F` [Example 133, 2-(((3R,4S)-3-fluoro-1-((S)-pyrrolidine-2-carbonyl)piperidin-4-yl)oxy)-5-(4-((4-(4-(oxetan-3-yl)piperazin-1-yl)phenyl)amino)-1,3,5-triazin-2-yl)benzonitrile]: the IC50 at IKKε and on hJAK2 was at least 1000 nM in each case.
`N#Cc1cc(-c2ncnc(Nc3ccc(N4CCN(C5COC5)CC4)cc3)n2)ccc1O[C@H]1CCN(Cc2nc(=O)[nH][nH]2)C[C@H]1F` [Example 436, 2-(((3R,4S)-3-fluoro-1-((5-oxo-2,5-dihydro-1H-1,2,4-triazol-3-yl)methyl)piperidin-4-yl)oxy)-5-(4-((4-(4-(oxetan-3-yl)piperazin-1-yl)phenyl)amino)-1,3,5-triazin-2-yl)benzonitrile]: the IC50 at IKKε (setting [1]) came out at 99 nM; on hJAK2 it was 156 nM.
Consider `COc1cc(Nc2ncnc(-c3ccc(O[C@H]4CCN(C(=O)[C@@H](O)CO)CC4(F)F)c(C#N)c3)n2)ccc1N1CCN(C2COC2)CC1` [Example 577, 2-(((S)-1-((S)-2,3-dihydroxypropanoyl)-3,3-difluoropiperidin-4-yl)oxy)-5-(4-((3-methoxy-4-(4-(oxetan-3-yl)piperazin-1-yl)phenyl)amino)-1,3,5-triazin-2-yl)benzonitrile], for which the IC50 at IKKε (setting [1]) is 1 nM; against TBK1, 2 nM.
`N#Cc1cc(-c2ncnc(Nc3ccc(N4CCN(C5COC5)CC4)cc3)n2)ccc1OCC1(C(N)=O)CC1` [Example 605, 1-((2-cyano-4-(4-((4-(4-(oxetan-3-yl)piperazin-1-yl)phenyl)amino)-1,3,5-triazin-2-yl)phenoxy)methyl)-cyclopropanecarbox-amide]: the IC50 at IKKε is 20 nM; against TBK1 it was 12 nM.
